Test results taken from patent US20130164813A1, “Method for Inhibiting Transglutaminase 2 Activity Using 2-alkyloxy-3-phenylethynyl-4a,5-dihydropyrido[2,3-b]pyrazine Derivatives” (DONGGUK UNIVERSITY INDUSTRY-ACADEMIC COOPERATION FOUNDATION, priority 2011, published 2013).

Legend:
Transglutaminase 2 = molecular target: T1, Transglutaminase 2 (Cavia cutleri, UniProt P08587); test: In vitro assay for inhibitory effect on TGase 2 ([1,4-14C] putrescine incorporation into succinylated casein); type: biochemical
T1 construct: purchased Sigma-Aldrich T5398
T1 sequence (P08587 1-690): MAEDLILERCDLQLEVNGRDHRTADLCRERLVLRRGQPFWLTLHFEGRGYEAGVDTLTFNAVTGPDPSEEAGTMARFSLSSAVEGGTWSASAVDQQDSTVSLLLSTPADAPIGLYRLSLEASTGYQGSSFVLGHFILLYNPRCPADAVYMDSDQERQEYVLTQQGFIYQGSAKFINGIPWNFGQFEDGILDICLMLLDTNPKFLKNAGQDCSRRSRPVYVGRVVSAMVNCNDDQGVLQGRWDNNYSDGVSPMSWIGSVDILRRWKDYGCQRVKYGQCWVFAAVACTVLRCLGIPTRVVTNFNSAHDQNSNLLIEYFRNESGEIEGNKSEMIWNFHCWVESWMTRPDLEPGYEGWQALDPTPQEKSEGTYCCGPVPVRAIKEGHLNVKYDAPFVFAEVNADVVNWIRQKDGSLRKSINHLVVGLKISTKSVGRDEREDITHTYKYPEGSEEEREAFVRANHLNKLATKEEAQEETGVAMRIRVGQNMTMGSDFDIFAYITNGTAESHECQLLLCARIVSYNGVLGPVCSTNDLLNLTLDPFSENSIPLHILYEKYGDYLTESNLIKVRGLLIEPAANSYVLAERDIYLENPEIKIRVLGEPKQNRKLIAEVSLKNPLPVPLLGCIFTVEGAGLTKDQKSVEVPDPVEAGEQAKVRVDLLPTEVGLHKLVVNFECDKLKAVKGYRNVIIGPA
Method: In vitro Assay for Inhibitory effect of 2-alkyloxy-3-phenylethynyl-4a,5-dihydropyrido[2,3-b]pyrazine derivative on TGase 2.
Method. […] Succinylated casein was purchased from Calbiochem (Cat. No. 573464), and 1 g of the powder was dissolved in 50 ml of a reaction buffer solution containing 5 mM DTT (0.1 M Tris-acetate (pH 8.0), 10 mM CaCl2, 0.15 M NaCl, 1.0 mM EDTA). This solution was stored in a deep freezer for further use. [1,4-14C] Putrescine dihydrochloride was purchased from GE Healthcare (Cat. No. CFA301), and the stock solution was diluted with distilled water to yield a radiological dose of 5 μCi/ml. Transglutaminase 2 was purchased from Sigma-Aldrich (Cat. No. T5398), and diluted with distilled water to yield a final concentration of 1 unit/ml. 2-Alkyloxy-3-phenylethynyl-4a,5-dihydropyrido[2,3-b]pyrazine derivative was dissolved at a concentration of 1 mM to prepare its stock solution, and the stock solution was diluted with DMSO to prepare solutions having various concentrations.
450 μl of succinylated casein solution and 50 μl of [1,4-14C] putrescine dihydrochloride solution were mixed together to prepare a substrate solution. 96 μl of the reaction buffer, 3 μl of the stock solution of the compounds of the present invention, and 1 μl of the stock solution of transglutaminase were mixed together to prepare each sample, followed by incubation at 37° C. for 10 min. 500 μl of the substrate solution and 100 μl of sample solution were mixed well, and the mixture was incubated at 37° C. for 2 hrs and then the reaction terminated by adding 4.5 ml of cold (4° C.) 7.5% TCA. The final solution was stored at 4° C. for 1 hr. The TCA-protein precipitates were filtered through a GF/glass fiber filter, washed with 25 ml of cold 5% TCA, and dried. Radioactivity of cross-linked protein was measured using a β-counter (Beckman Coulter), and compensated by the activity of DMSO-control group as a standard. The activity of transglutaminase was represented by the measured values.

786-O = test: SRB test, renal cancer cell line 786-O; type: cell-based; conditions: Homo sapiens, 786-0, 48 hours, read-out: IG50 (×E−7)
Method: (§1) Test of Anti-cancer efficacy in the Cancer cell line. In order to examine anti-cancer efficacy of 2-alkyloxy-3-phenylethynyl-4a,5-dihydropyrido[2,3-b]pyrazine derivatives, Eight renal cancer cell lines were treated to perform an SRB test. In order to compare the anti-cancer efficacy, sutent® (Pfizer) was used for comparison.
(§2) 1) Method (SRB Test). The cancer cell lines were cultured in an RPMI 1640 medium containing 5% fetal bovine serum and 2 mM L-glutamine. The cancer cells were inoculated into a 96 well microtiter plate at a density of 5,000 or 40,000 cells/well. The cells were incubated at 37° C., 5% CO2, 95% air and 100% humidity for 24 hours prior to drug treatment.
(§3) After 24 hours, the cells were fixed with TCA at the time of drug addition (Tz). The drug was treated by 10-fold or log scale serial dilutions, and the efficacy was examined at a concentration of 5 point or more. After drug treatment, the cells were incubated for 48 hours. […] Bound stain was subsequently solubilized with trizma base, and the absorbance was read at 515 nm.
(§4) Growth inhibitory efficacy was measured by using the seven absorbance measurements. [time zero, (Tz), control growth, (C), and test growth in the presence of drug at the five concentration levels (Ti)], the percentage growth was calculated at each of the drug concentrations levels. […]

ACHN = test: SRB test, renal cancer cell line ACHN; type: cell-based; conditions: Homo sapiens, 48 hours, read-out: IG50 (×E−7)
Method: as §1, §2, §3, §4

A498 = test: SRB test, renal cancer cell line A498; type: cell-based; conditions: Homo sapiens, A498, 48 hours, read-out: IG50 (×E−7)
Method: as §1, §2, §3, §4

CAKI-I = test: SRB test, renal cancer cell line CAKI-I; type: cell-based; conditions: 48 hours, read-out: IG50 (×E−7)
Method: as §1, §2, §3, §4

RXF393 = test: SRB test, renal cancer cell line RXF393; type: cell-based; conditions: Homo sapiens, RXF 393, RXF393, 48 hours, read-out: IG50 (×E−7)
Method: as §1, §2, §3, §4

SN12C = test: SRB test, renal cancer cell line SN12C; type: cell-based; conditions: Homo sapiens, 48 hours, read-out: IG50 (×E−7)
Method: as §1, §2, §3, §4

TK10 = test: SRB test, renal cancer cell line TK10; type: cell-based; conditions: Homo sapiens, TK-10, TK10, 48 hours, read-out: IG50 (×E−7)
Method: as §1, §2, §3, §4

US31 = test: SRB test, renal cancer cell line US31; type: cell-based; conditions: 48 h, read-out: IG50 (×E−7)
Method: as §1, §2, §3, §4

renal cancer cell lines = test: SRB test, eight renal cancer cell lines together; type: cell-based
Method: as §1, §2, §3, §4

MDA-MB-231 cells = test: Anti-cancer efficacy on MDA231 breast cancer cell line by animal study (subcutaneous xenograft); type: in vivo; conditions: 4 mg/kg, compared to the cisplatin-treated group, FIGS. 3 and 4
Method: Evaluation of Anti-cancer efficacy of TGase 2 inhibitor on MDA231 breast cancer cell line by animal study.
MDA-MB-231 cells were cultured in a DMEM medium containing 10% FBS.
8×10^6 of MDA-MB-231 cells were subcutaneously injected into 7-week-old female Balb/c-nude mice. Four TGase inhibitors and doxorubicin were co-administered, and the effects were examined Group 1: saline. […] Group 3: 2-alkyloxy-3-phenylethynyl-4a,5-dihydropyrido[2,3-b]pyrazine derivative (4 mg/kg).
The prepared cancer cell, MDA-MB231/luciferase (8×10^6 cells/head) was subcutaneously injected into animals 7 days after their arrival. When a volume of the injected cancer cells reached 100 mm3, drug treatment was started.
After injection of MDA-MB-231, when a volume of the injected tumor reached 100 mm3, drug treatment was performed. After 3-4 weeks, the mice were sacrificed.
After the tumor volume reached 100 mm3, the size was measured three times per week during the drug treatment period. The tumor volume was calculated as ‘long axis×long axis×short axis/2’.

`C(#Cc1nc2ncccc2nc1OCCN1CCCC1)c1ccccc1` [Example 1, 3-phenylethynyl-2-(2-(pyrrolidin-1-yl)ethoxy)pyrido[2,3-b]pyrazine] was tested, and the IC50 (Transglutaminase 2; FIG. 1) was 0.0338 µM, the inhibition at 10 µM (Transglutaminase 2) was 91% and the IC50 (786-O) was 0.225 µM. For the same molecule, the IC50 (ACHN) was 0.137 µM, the IC50 (A498) was 5.61 µM and the IC50 (CAKI-I) was 0.071 µM. It also gave an IC50 (RXF393) of 0.179 µM, an IC50 (SN12C) of 0.186 µM and an IC50 (TK10) of 0.529 µM. The IC50 (US31) was 5.49 µM, the GI50 (renal cancer cell lines; eight renal cancer cell lines, SRB, read-out: Average GI50 over all cell lines) was 0.43 µM and the “anti-cancer efficacy compared with SUTENT” value (renal cancer cell lines; renal cancer cell line, SRB growth rate, FIG. 2) was “better than that of SUTENT®”. For the same molecule, the “reduction in the tumor size” value (MDA-MB-231 cells) was “the best effect of a reduction in the tumor size”.
Work on `C(#Cc1nc2ncccc2nc1OCCN1CCCCC1)c1ccccc1` [Example 2, 3-phenylethynyl-2-(2-(piperidin-1-yl)ethoxy)pyrido[2,3-b]pyrazine] yielded an inhibition at 10 µM (Transglutaminase 2) of 83%.
With `C(#Cc1nc2ncccc2nc1OCCN1CCOCC1)c1ccccc1` [Example 3, 4-(2-(3-(phenylethynyl)pyrido[3,2-b]pyrazin-2-yloxy)ethyl)morpholine] the inhibition at 10 µM (Transglutaminase 2) was 47%.
For `C(#Cc1nc2ncccc2nc1OCCCN1CCCC1)c1ccccc1` [Example 4, 3-(phenylethynyl)-2-(3-(pyrrolidin-1-yl)propoxy)pyrido[3,2-b]pyrazine], the inhibition at 10 µM (Transglutaminase 2) was 59%.
Work on `C(#Cc1nc2ncccc2nc1OCCCN1CCCCC1)c1ccccc1` [Example 5, 3-(phenylethynyl)-2-(3-(piperidin-1-yl)propoxy)pyrido[3,2-b]pyrazine] yielded an inhibition at 10 µM (Transglutaminase 2) of 54%.
`C(#Cc1nc2ncccc2nc1OCCCN1CCOCC1)c1ccccc1` [Example 6, 4-(3-(3-(phenylethynyl)pyrido[3,2-b]pyrazin-2-yloxy)propyl)morpholine] was tested, and the inhibition at 10 µM (Transglutaminase 2) was 32%.
Molecule `O=C1CCCN1CCCOc1nc2cccnc2nc1C#Cc1ccccc1` [Example 7, 1-(3-(3-(phenylethynyl)pyrido[3,2-b]pyrazin-2-yloxy)propyl)pyrrolidin-2-one] has an inhibition at 10 µM (Transglutaminase 2) of 43%.
`CN(C)c1ccc(C#Cc2nc3ncccc3nc2OCCN2CCCC2)cc1` [Example 8, N,N-dimethyl-4-((2-(2-(pyrrolidin-1-yl)ethoxy)pyrido[3,2-b]pyrazin-3-yl)ethynyl)benzenamine] was tested, and the inhibition at 10 µM (Transglutaminase 2) was 68%.
Molecule `CN(C)c1ccc(C#Cc2nc3ncccc3nc2OCCN2CCCCC2)cc1` [Example 9, N,N-dimethyl-4-((2-(2-(piperidin-1-yl)ethoxy)pyrido[3,2-b]pyrazin-3-yl)ethynyl)benzenamine] has an inhibition at 10 µM (Transglutaminase 2) of 57%.
`COc1ccc(C#Cc2nc3ncccc3nc2OCCN2CCCC2)cc1` [Example 14, 3-(4-methoxyphenylethynyl)-2-(2-pyrrolidin-1-ylethoxy)pyrido[3,2-b]pyrazine] was tested, and the inhibition at 10 µM (Transglutaminase 2) was 64%.
`COc1ccc(C#Cc2nc3ncccc3nc2OCCN2CCCCC2)cc1` [Example 15, 3-(4-methoxyphenylethynyl)-2-(2-piperidin-1-ylethoxy)pyrido[3,2-b]pyrazine] showed an inhibition at 10 µM (Transglutaminase 2) of 51%.
Work on `Cc1ccc(C#Cc2nc3ncccc3nc2OCCN2CCCC2)cc1` [Example 21, 2-(2-(pyrrolidin-1-yl)ethoxy)-3-(p-tolylethynyl)pyrido[3,2-b]pyrazine] yielded an inhibition at 10 µM (Transglutaminase 2) of 52%.
With `CN(C)c1ccccc1C#Cc1nc2ncccc2nc1OCCN1CCCC1` [Example 42, N,N-dimethyl-2-((2-(2-(pyrrolidin-1-yl)ethoxy)pyrido[3,2-b]pyrazin-3-yl)ethynyl)benzenamine] the inhibition at 10 µM (Transglutaminase 2) was 63%.
For `CN(C)c1ccccc1C#Cc1nc2ncccc2nc1OCCN1CCCCC1` [Example 43, N,N-dimethyl-2-((2-(2-(piperidin-1-yl)ethoxy)pyrido[3,2-b]pyrazin-3-yl)ethynyl)benzenamine], the inhibition at 10 µM (Transglutaminase 2) was 54%.
